Earlier results, collected in patent publication US20230081296A1, “STABLE NON-AQUEOUS COMPOSITIONS OF PLANTS EXTRACTS AND METHODS OF MAKING THE SAME” (Nulixir Inc., priority 2021, published 2023).

Conditions: reference phases water and n-octanol; categorization assumed at pH = 7 unless stated otherwise

| Compound | logP |
| --- | --- |
| COc1cc2c(c(OC)c1OC)-c1c(cc(OC)c(OC)c1OC)C[C@H](C)[C@H](C)C2 [(-)-schisandrin A] | ~3.6 |
| COc1cc2c(c(OC)c1OC)-c1c(cc3c(c1OC)OCO3)CC(C)C(C)C2 (single isomer, unassigned; (-)) [(-)-schisandrin B] | ~4 |
| schisandroside C | ~1.6 |
| COC1=CC(=O)O[C@@H](CCc2ccc3c(c2)OCO3)C1 [7,8-dihydromethysticin] | ~2.2 |
| COc1cc(/C=C\c2ccc(OC)c(O)c2)oc(=O)c1 [11-hydroxyyangonin] | ~2.2 |
| COC1=CC(=O)OC(/C=C/c2ccc(OC)cc2)C1 (centres unmarked) [5,6-dihydroyangonin] | ~2.5 |
| herinacine A | ~2.5 |
| COc1ccc(CCc2cc(OC)cc(=O)o2)cc1 [7,8-dihydroyangonin] | ~2.9 |
| tortuosomine | ~3 |
| COc1cc2c(c(OC)c1OC)-c1c(cc(OC)c(OC)c1OC)C[C@](C)(O)[C@@H](C)C2 [(+)-schisandrin] | ~5 |
| COc1cc([C@H]2Oc3cc(O)c4c(=O)c(O)c(-c5ccc(O)cc5)oc4c3O[C@@H]2CO)ccc1O [rhodiolin] | ~2 |
| CC1=C(CO)C(=O)O[C@@H]([C@@H](C)[C@H]2CC[C@H]3[C@@H]4C[C@H](Cl)[C@]5(O)[C@@H](O)C=CC(=O)[C@]5(C)[C@H]4CC[C@]23C)C1 [6a-chloro-5b-hydroxywithaferin A] | ~3.2 |
| (R)-kawain | ~2.7 |
| CC(=O)OC1C=CC(=O)N(C(=O)CCc2ccccc2)C1 (centres unmarked) [pipermethystine] | ~1.8 |
| COc1nc2c(c(=O)n1C)n(C)c(=O)n2C [methylliberine] | ~-0.083 |
| COc1cc(/C=C/c2ccccc2)oc(=O)c1 [5,6-dehydrokawain] | ~2.9 |
| COc1ccc([C@@]23CCC(=O)C[C@@H]2N(C)CC3)cc1OC [mesembrine] | ~1.5 |
| N#C[C@@]1(O[C@@H]2O[C@H](CO)[C@@H](O)[C@H](O)[C@H]2O)C=C[C@@H](O)C1 [tetraphyllin B] | ~-2.5 |
| (-)-schisandrin C | ~3.5 |
| bacopaside B | ~2.8 |
| hericerin | ~6.4 |
| CC(/C=C/C=C(\C)C(=O)O[C@@H]1O[C@H](CO[C@@H]2O[C@H](CO)[C@@H](O)[C@H](O)[C@H]2O)[C@@H](O)[C@H](O)[C@H]1O)=C\C=C\C=C(C)\C=C\C=C(/C)C(=O)O[C@@H]1O[C@H](CO[C@@H]2O[C@H](CO)[C@@H](O)[C@H](O)[C@H]2O)[C@@H](O)[C@H](O)[C@H]1O [alpha -crocin] | ~-1.5 |
| COc1cc2c(c(OC)c1OC)-c1c(cc(OC)c(OC)c1OC)C[C@](C)(O)[C@@H](C)C2 [schisandrol A] | ~3.4 |
